Experimental data: ChEMBL document CHEMBL1157288, “Isolation and structure assignment of an iminotetrasaccharide from a cultured filamentous cyanobacterium Anabaena sp” (J Nat Prod, 2006)

System: Escherichia coli
Test: Inhibition of Escherichia coli beta-glucuronidase at 560 uM

inhibition: 50%
SMILES: CO[C@@H]1[C@@H](O)[C@@H](O[C@@H]2[C@@H]([C@H](C)O)NC[C@@H]2O)O[C@H](CO)[C@H]1O[C@H]1OC[C@H](OC(C)=O)[C@H](OC(C)=O)[C@H]1O[C@H]1O[C@H](C(=O)O)[C@@H](O)[C@H](O)[C@H]1O
